Values quoted from earlier work, collected in patent US9075045B2, “Cell-based detection of APF through its interaction with CKAP4 for diagnosis of interstitial cystitis” (THE COMMONWEALTH MEDICAL COLLEGE, priority 2008, dated 2015).
Read-outs that look alike come from different tables or passages of the source.

## C[S+](C)[O-] [dimethyl sulfoxide]
Bladder instillation every week or two for 6 to 8 weeks
  effect on IC symptoms: improve symptoms temporarily

## Pentosan polysulfate sodium
Given orally (100 mg three times a day)
  improved symptoms in % of patients: 30%

## Bacillus Calmette-Guerin
Intravesicular agent
  effect on IC symptoms: improve symptoms
